{
  "source": "patent US9526741B2",
  "about": "“Chemosensory receptor ligand-based therapies” (NaZura BioHealth, Inc., priority 2009, dated 2016)",
  "origin": "cited, not measured here",
  "system": "GLP-1",
  "details": "humans",
  "data": [
    {"molecule": "OCCN1C[C@H](O)[C@@H](O)[C@H](O)[C@H]1CO", "note": "[miglitol]", "values": [
      {"measurement": "postprandial GLP-1 levels", "result": "increase"}
    ]}
  ]
}
